Patent publication US20100203043A1, “TREATMENT AND DIAGNOSIS OF METASTATIC PROSTATE CANCER WITH INHIBITORS OF EPIDERMAL GROWTH FACTOR RECEPTOR (EGFR)” (priority 2007, published 2010)

Test system: LNCaP cells
Assay: Kinase activity profiling (PamChip peptide arrays) of LNCaP cells treated with synthetic androgen analog
Assay type: cell-based, human
Parameters: key to ZAP70_y492/y493 phosphopeptide fold change (log2) relative to LNCaP baseline / RASA_y460 phosphopeptide fold change (log2) relative to LNCaP baseline / RET_y1029 phosphopeptide fold change (log2) relative to LNCaP baseline / IRS2_y919 phosphopeptide fold change (log2) relative to LNCaP baseline / JAK1_y1022/y1023 phosphopeptide fold change (log2) relative to LNCaP baseline / LCK_y394 phosphopeptide fold change (log2) relative to LNCaP baseline / MET_y1230/y1234/y1235 phosphopeptide fold change (log2) relative to LNCaP baseline / PDPK1_y9 phosphopeptide fold change (log2) relative to LNCaP baseline / PDPK1_y373/y376 phosphopeptide fold change (log2) relative to LNCaP baseline / EPHB1_y778 phosphopeptide fold change (log2) relative to LNCaP baseline / ERBB2_y877 phosphopeptide fold change (log2) relative to LNCaP baseline / ERBB2_y1248 phosphopeptide fold change (log2) relative to LNCaP baseline / CDK2_t14/y_5 phosphopeptide fold change (log2) relative to LNCaP baseline / DDRl_y792/y796/y797 phosphopeptide fold change (log2) relative to LNCaP baseline / MAPK10 phosphopeptide fold change (log2) relative to LNCaP baseline / MAPK12_t183/y185 phosphopeptide fold change (log2) relative to LNCaP baseline / PECAM1_y713 phosphopeptide fold change (log2) relative to LNCaP baseline / PRRX2_y214 phosphopeptide fold change (log2) relative to LNCaP baseline / ANXA1_y20/t23 phosphopeptide fold change (log2) relative to LNCaP baseline / CD79A_y182/y188 phosphopeptide fold change (log2) relative to LNCaP baseline / CTTN1_y477/y483 phosphopeptide fold change (log2) relative to LNCaP baseline / CTTN1_y499 phosphopeptide fold change (log2) relative to LNCaP baseline / ENO2_y43 phosphopeptide fold change (log2) relative to LNCaP baseline / EPHA2_y772 phosphopeptide fold change (log2) relative to LNCaP baseline / EPHA7_y608/y614 phosphopeptide fold change (log2) relative to LNCaP baseline / EPOR_y368 phosphopeptide fold change (log2) relative to LNCaP baseline / EPOR_y426 phosphopeptide fold change (log2) relative to LNCaP baseline / FER_y714 phosphopeptide fold change (log2) relative to LNCaP baseline / FES_y713 phosphopeptide fold change (log2) relative to LNCaP baseline / FGFR2_y769 phosphopeptide fold change (log2) relative to LNCaP baseline / FGFR3_y760 phosphopeptide fold change (log2) relative to LNCaP baseline / FRK_y387 phosphopeptide fold change (log2) relative to LNCaP baseline / LAT_y255 phosphopeptide fold change (log2) relative to LNCaP baseline / EGFR_y1110 phosphopeptide fold change (log2) relative to LNCaP baseline / NTRK2_y702/y706/y707 phosphopeptide fold change (log2) relative to LNCaP baseline / PDGFRB_y579/y581 phosphopeptide fold change (log2) relative to LNCaP baseline / PDGFRB_y716 phosphopeptide fold change (log2) relative to LNCaP baseline / PIK3R1_y607/s608 phosphopeptide fold change (log2) relative to LNCaP baseline / PXN_y31 phosphopeptide fold change (log2) relative to LNCaP baseline / PXN_y118 phosphopeptide fold change (log2) relative to LNCaP baseline / TEC_y519 phosphopeptide fold change (log2) relative to LNCaP baseline / MST1R_y1353 phosphopeptide fold change (log2) relative to LNCaP baseline / MST1R_y1356/y1360 phosphopeptide fold change (log2) relative to LNCaP baseline / FAK_y576/y577 phosphopeptide fold change (log2) relative to LNCaP baseline / FAK2_y579/y580 phosphopeptide fold change (log2) relative to LNCaP baseline / LAT_y200 phosphopeptide fold change (log2) relative to LNCaP baseline: —: ‘-’ denotes that the change in peptide phosphorylation level was not found to be significant
Settings: ‘androgenic’: LNCaP cells, 100 nM R1881, 48 h
Method: Cell culture conditions. The LNCaP and OHS cell lines were routinely held in RPMI 1640 medium supplemented with 10% fetal bovine serum (FBS) and 2.0 mM glutamine, defined as growth medium. Different ratios of LNCaP cells to OHS cells had been tested in a series of cocultures to find the optimal culturing conditions [Bratland et al., 2003]. Seventy-two hours before start of experimental incubations, LNCaP and OHS cells were seeded in a 10:1 ratio in RPMI containing 2% charcoal-treated FBS and glutamine. After 48 h, this medium was changed to RPMI containing 0.5% charcoal-treated FBS and glutamine, defined as experimental medium, for another 24 h before experimental incubations were started (at time 0). Monocultures of LNCaP cells were identically incubated prior to experimental incubations.
Monocultures of LNCaP, as well as LNCaP/OHS cocultures, were seeded in a total number of 1.0×10^6 cells in 75 cm2 cell flasks and invariably held in 10 ml medium throughout different incubations. At time 0 (start of the experimental incubations), monocultured LNCaP cells were refed with experimental medium supplemented with 100 nM R1881 (methyltrienolone; Life Science Products), a synthetic androgen analog, or with medium conditioned by OHS cells. The conditioned medium had been collected from OHS monocultures that had been seeded in a 10-fold higher number per volume medium compared to the corresponding cell number of the LNCaP/OHS cocultures, and grown for 48 h (relative to time 0) in experimental medium. This medium was subsequently diluted 1:10 in either fresh experimental medium or in medium obtained from standard LNCaP monocultures after 48 h of incubation (relative to time 0) in experimental medium, before the application onto monocultured LNCaP cells.
To be able to analyze LNCaP signaling pathways activated by direct contact with OHS cells, LNCaP cells were isolated from cocultures by immunomagnetic selection [Forus et al., 1999, Fodstad et al., 2001, Bruland et al., 2005, Tveito et al., 2007]. This rapid and simple procedure enables specific selection of target cells for further analytical applications. Subsequent multiplex profiling of kinase activity was performed using flow-through, porous microarrays with peptide substrates (PamChip® peptide arrays; PamGene International B.V., www.pamgene.com), a novel platform that allows rapid, real-time measurements of phosphopeptide signatures generated by the biological samples.
Androgens are critical regulators of prostate carcinoma progression. Most patients respond to androgen ablation therapy, but only temporarily, also at bone metastasis sites. Until recently, the regulatory program mediated by the androgen receptor in prostate cancer has been elusive [Dehm & Tindall, 2006]. To simulate the complex processes involved in aberrant activation of the androgen signaling axis upon disease progression of prostate cancer [Feldman & Feldman, 2001, Attard et al., 2006], our experimental setting included LNCaP cells treated with a synthetic androgen analog (R1881, 100 nM) to observe whether androgen receptor-mediated signaling pathways might be different from those activated by OHS-directed influence.
The LNCaP samples were given denotations in accordance with their biological context: ‘direct’ (cells from LNCaP/OHS cocultures), ‘paracrine 1’ (cells treated with OHS-conditioned medium mixed with fresh medium), ‘paracrine 2’ (cells treated with OHS-conditioned medium mixed with medium conditioned by LNCaP cells), and ‘androgenic’ (cells treated with the synthetic androgen analog), in addition to baseline (untreated reference cells).
To identify regulatory mechanisms underlying the affinity of prostate cancer to bone, the substrate phosphorylation state generated by each LNCaP entity (‘direct’, ‘paracrine’, ‘androgenic’) was calculated with respect to baseline. […]

C[C@]1(O)CC[C@H]2[C@@H]3CCC4=CC(=O)CCC4=C3C=C[C@@]21C [R1881, methyltrienolone]
ANXA1_y20/t23 phosphopeptide fold change (log2) relative to LNCaP baseline: —
CD79A_y182/y188 phosphopeptide fold change (log2) relative to LNCaP baseline: —
CDK2_t14/y_5 phosphopeptide fold change (log2) relative to LNCaP baseline: —
CHRNB1_y390 phosphopeptide fold change (log2) relative to LNCaP baseline: 1.57 fold change (log2)
CREBl_y134/s133 phosphopeptide fold change (log2) relative to LNCaP baseline: 1.47 fold change (log2)
CTTN1_y477/y483 phosphopeptide fold change (log2) relative to LNCaP baseline: —
CTTN1_y499 phosphopeptide fold change (log2) relative to LNCaP baseline: —
DDRl_y792/y796/y797 phosphopeptide fold change (log2) relative to LNCaP baseline: —
EGFR_y1110 phosphopeptide fold change (log2) relative to LNCaP baseline: —
EGFR_y1197 phosphopeptide fold change (log2) relative to LNCaP baseline: 1.94 fold change (log2)
ENO2_y43 phosphopeptide fold change (log2) relative to LNCaP baseline: —
EPHA2_y772 phosphopeptide fold change (log2) relative to LNCaP baseline: —
EPHA7_y608/y614 phosphopeptide fold change (log2) relative to LNCaP baseline: —
EPHB1_y778 phosphopeptide fold change (log2) relative to LNCaP baseline: —
EPOR_y368 phosphopeptide fold change (log2) relative to LNCaP baseline: —
EPOR_y426 phosphopeptide fold change (log2) relative to LNCaP baseline: —
ERBB2_y877 phosphopeptide fold change (log2) relative to LNCaP baseline: —
ERBB2_y1248 phosphopeptide fold change (log2) relative to LNCaP baseline: —
ERBB4_y1284 phosphopeptide fold change (log2) relative to LNCaP baseline: 3.31 fold change (log2)
FAK2_y579/y580 phosphopeptide fold change (log2) relative to LNCaP baseline: —
FAK_y576/y577 phosphopeptide fold change (log2) relative to LNCaP baseline: —
FER_y714 phosphopeptide fold change (log2) relative to LNCaP baseline: —
FES_y713 phosphopeptide fold change (log2) relative to LNCaP baseline: —
FGFR2_y769 phosphopeptide fold change (log2) relative to LNCaP baseline: —
FGFR3_y760 phosphopeptide fold change (log2) relative to LNCaP baseline: —
FRK_y387 phosphopeptide fold change (log2) relative to LNCaP baseline: —
GSK3B_y216 phosphopeptide fold change (log2) relative to LNCaP baseline: 1.15 fold change (log2)
IRS2_y919 phosphopeptide fold change (log2) relative to LNCaP baseline: —
JAK1_y1022/y1023 phosphopeptide fold change (log2) relative to LNCaP baseline: —
LAT_y200 phosphopeptide fold change (log2) relative to LNCaP baseline: —
LAT_y255 phosphopeptide fold change (log2) relative to LNCaP baseline: —
LCK_y394 phosphopeptide fold change (log2) relative to LNCaP baseline: —
LTK_y772/y776/y777 phosphopeptide fold change (log2) relative to LNCaP baseline: 1.20 fold change (log2)
MAPK10 phosphopeptide fold change (log2) relative to LNCaP baseline: —
MAPK12_t183/y185 phosphopeptide fold change (log2) relative to LNCaP baseline: —
MET_y1230/y1234/y1235 phosphopeptide fold change (log2) relative to LNCaP baseline: —
MST1R_y1353 phosphopeptide fold change (log2) relative to LNCaP baseline: —
MST1R_y1356/y1360 phosphopeptide fold change (log2) relative to LNCaP baseline: —
NTRK2_y702/y706/y707 phosphopeptide fold change (log2) relative to LNCaP baseline: —
PDGFRB_y579/y581 phosphopeptide fold change (log2) relative to LNCaP baseline: —
PDGFRB_y716 phosphopeptide fold change (log2) relative to LNCaP baseline: —
PDPK1_y9 phosphopeptide fold change (log2) relative to LNCaP baseline: —
PDPK1_y373/y376 phosphopeptide fold change (log2) relative to LNCaP baseline: —
PECAM1_y713 phosphopeptide fold change (log2) relative to LNCaP baseline: —
PFKFB1_s33 phosphopeptide fold change (log2) relative to LNCaP baseline: 1.36 fold change (log2)
PIK3R1_y607/s608 phosphopeptide fold change (log2) relative to LNCaP baseline: —
PRRX2_y214 phosphopeptide fold change (log2) relative to LNCaP baseline: —
PTPN11_y542 phosphopeptide fold change (log2) relative to LNCaP baseline: 2.94 fold change (log2)
PXN_y31 phosphopeptide fold change (log2) relative to LNCaP baseline: —
PXN_y118 phosphopeptide fold change (log2) relative to LNCaP baseline: —
RAF1_s337/s338/y339/y340 phosphopeptide fold change (log2) relative to LNCaP baseline: 1.14 fold change (log2)
RASA_y460 phosphopeptide fold change (log2) relative to LNCaP baseline: —
RB1_s807/s811 phosphopeptide fold change (log2) relative to LNCaP baseline: 3.07 fold change (log2)
RET_y1029 phosphopeptide fold change (log2) relative to LNCaP baseline: —
SYN1_s9 phosphopeptide fold change (log2) relative to LNCaP baseline: 1.20 fold change (log2)
TEC_y519 phosphopeptide fold change (log2) relative to LNCaP baseline: —
ZAP70_y492/y493 phosphopeptide fold change (log2) relative to LNCaP baseline: —
